Where a name gives a salt, the structure may show the parent alone.
Columns and labels:
[1] = test system: HCT116 cells, MKN45 cells; assay: Test C: Measurement of cell proliferation by 14C-thymidine pulse; assay type: cell-based; conditions: 14C-thymidine incorporation, 96 h of treatment; cell line not given
Description: (§1) Stop the reaction with 100 μl of stop solution. Read without delay at […], 0.1 second on Wallac Victor plate reader. • C) Test C: Measurement of cell proliferation by ^14c-thymidine pulse
The cells are seeded into Cytostar 96-well plates in 180 μl for 4 hours at 37° C. and 5% CO2: HCT116 cells at a rate of 2500 cells per well in DMEM medium+10% foetal calf serum+1% L-glutamine and MKN45 cells at a rate of 7500 cells per well in RPMI medium+10% foetal calf serum+1% L-glutamine. After these 4 hours of incubation, the products are added in 10 μl as a 20-fold concentrated solution according to the dilution method mentioned for the ELISA. The products are tested at 10 concentrations in duplicate from 10 000 nM to 0.3 nM with an increment of 3.
After treatment for 72 h, add 10 μl of ^14C-thymidine at 10 μCi/ml to obtain 0.1 μCi per well. The ^14C-thymidine incorporation is measured on a Micro-Beta machine (Perkin-Elmer) after 24 hours of pulse and 96 h of treatment.
All the steps of the assay are automated on BIOMEK 2000 or TECAN stations.

MET [2] = biological target: T1, MET (Homo sapiens, UniProt P08581); assay: Test B: Inhibition of the autophosphorylation of MET; ELISA technique (pppY1230,1234,1235) in MKN45 cells; assay type: cell-based; set-up: Seed MKN45 cells into 96-well plates (Cell coat BD polylysine) at 20 000 cells/well; endogenous in cells; host or cells: MKN45 cells; conditions: 1 h treatment, PhosphoMET ELISA
Description: Leave to adhere for 24 hours in an incubator.
The cells are treated the day after seeding with the products at 6 concentrations in duplicate for 1 h. At least 3 control wells are treated with the same final amount of DMSO.
Product dilution: Stock at 10 mM in pure DMSO—range from 10 mM to 30 μM with an increment of 3 in pure DMSO—intermediate 1/50 dilutions in culture medium and then removal of 10 μl added directly to the cells (200 μl): final range of 10 000 to 30 nM.
At the end of the incubation, carefully remove the supernatant and rinse with 200 μl of PBS. Next, place 100 μl of lysis buffer directly in the wells on ice and incubate at 4° C. for 30 minutes. Lysis buffer: 10 mM Tris HCl, pH7.4, 100 mM NaCl, 1 mM EDTA, 1 mM EGTA, 1% Triton X-100, 10% glycerol, 0.1% SDS, 0.5% deoxycholate, 20 mM NaF, 2 mM Na3VO4, 1 mM PMSF and cocktail of antiproteases.
The 100 μl of lysates are transferred into a V-bottomed polypropylene plate and the ELISA is performed immediately, or the plate is frozen at −80° C. • b) PhosphoMET ELISA BioSource Kit KH00281
Into each well of the kit plate, add 70 μl of kit dilution buffer+30 μL of cell lysate or 30 μl of lysis buffer for the blanks. Incubate for 2 h with gentle agitation at ambient temperature.
Rinse the wells 4 times with 400 μl of kit washing buffer. Incubate with 100 μl of anti-phospho MET antibody for 1 hour at ambient temperature.
Rinse the wells 4 times with 400 μl of kit washing buffer. Incubate with 100 μl of anti-rabbit HRP antibody for 30 minutes at ambient temperature (except for the wells of chromogen alone).
Rinse the wells 4 times with 400 μl of kit washing buffer. Introduce 100 μL of chromogen and incubate for 30 minutes in the dark at ambient temperature.
as §1
Target sequence in this assay (P08581 25-1390): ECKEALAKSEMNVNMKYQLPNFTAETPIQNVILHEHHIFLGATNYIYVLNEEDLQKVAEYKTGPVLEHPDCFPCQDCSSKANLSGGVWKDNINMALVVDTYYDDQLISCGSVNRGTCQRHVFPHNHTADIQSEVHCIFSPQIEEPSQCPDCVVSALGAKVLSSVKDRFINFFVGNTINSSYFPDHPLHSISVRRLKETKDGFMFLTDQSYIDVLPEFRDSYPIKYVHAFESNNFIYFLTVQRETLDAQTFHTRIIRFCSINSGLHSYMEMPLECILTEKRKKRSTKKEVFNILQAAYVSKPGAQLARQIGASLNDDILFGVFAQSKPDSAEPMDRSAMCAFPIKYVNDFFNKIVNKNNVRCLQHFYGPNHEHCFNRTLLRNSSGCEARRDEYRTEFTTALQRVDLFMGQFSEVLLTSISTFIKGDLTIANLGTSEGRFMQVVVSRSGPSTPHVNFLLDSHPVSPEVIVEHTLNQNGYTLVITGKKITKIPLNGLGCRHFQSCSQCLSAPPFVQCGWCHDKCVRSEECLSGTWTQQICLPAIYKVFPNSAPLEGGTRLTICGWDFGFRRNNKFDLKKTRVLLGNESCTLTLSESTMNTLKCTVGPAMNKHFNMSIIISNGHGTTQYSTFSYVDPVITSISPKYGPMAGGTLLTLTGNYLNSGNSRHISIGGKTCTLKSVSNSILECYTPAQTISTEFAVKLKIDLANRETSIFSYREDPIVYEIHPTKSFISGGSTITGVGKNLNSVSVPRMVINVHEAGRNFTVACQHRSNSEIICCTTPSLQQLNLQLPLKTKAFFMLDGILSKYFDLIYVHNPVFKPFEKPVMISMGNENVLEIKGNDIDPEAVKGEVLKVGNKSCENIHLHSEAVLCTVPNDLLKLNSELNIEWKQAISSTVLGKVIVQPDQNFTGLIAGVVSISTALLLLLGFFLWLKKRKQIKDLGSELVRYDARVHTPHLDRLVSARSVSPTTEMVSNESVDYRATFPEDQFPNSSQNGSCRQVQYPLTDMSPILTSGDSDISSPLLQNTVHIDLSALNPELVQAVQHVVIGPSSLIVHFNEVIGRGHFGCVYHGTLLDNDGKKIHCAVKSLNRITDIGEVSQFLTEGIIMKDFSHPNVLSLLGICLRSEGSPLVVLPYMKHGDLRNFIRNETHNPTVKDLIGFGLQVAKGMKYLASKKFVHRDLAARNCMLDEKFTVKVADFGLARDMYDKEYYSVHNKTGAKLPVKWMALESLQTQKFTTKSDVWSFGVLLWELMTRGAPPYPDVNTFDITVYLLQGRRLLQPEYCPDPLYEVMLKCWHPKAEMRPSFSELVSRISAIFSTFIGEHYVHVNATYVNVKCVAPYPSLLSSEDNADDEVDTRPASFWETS

MET [3] = biological target: T1, MET; assay: Test A: HTRF MET assay in 96-well format; assay type: biochemical; set-up: The His-Tev-MET (956-1390) recombinant DNA in pFastBac (Invitrogen) is transfected into insect cells; His tag (N, cleaved yes); TEV cleavage site (N); made in house; host or cells: SF21 insect cells (baculovirus, pFastBac); conditions: MET 5 nM, 10 μM ATP
Description: I) Expression and Purification of MET, Cytoplasmic Domain
The His-Tev-MET (956-1390) recombinant DNA in pFastBac (Invitrogen) is transfected into insect cells, and after several viral amplification steps, the final baculovirus stock is tested for the expression of the protein of interest.
After infection for 72 h at 27° C. with the recombinant virus, the SF21 cell cultures are harvested by centrifugation and the cell pellets are stored at −80° C.
The cell pellets are resuspended in lysis buffer (buffer A [50 mM HEPES, pH 7.5, 250 mM NaCl, 10% glycerol, 1 mM TECP]; +cocktail of protease inhibitors, Roche Diagnostics, without EDTA, ref 1873580), stirred at 4° C. until the mixture is homogeneous and then lyzed mechanically using a “Dounce” type apparatus.
After centrifugation, the lysis supernatant is incubated for 2 h at 4° C. with nickel chelate resin (His-Trap 6 Fast Flow™, GE HealthCare). After washing with 20 volumes of buffer A, the suspension is packed into a column, and the proteins are eluted with a gradient of buffer B ([…]+290 mM imidazole).
The fractions containing the protein of interest for the purpose of electrophoretic analysis (SDS PAGE) are combined, concentrated by ultrafiltration (10 kDa cut-off) and injected onto an exclusion chromatography column (Superdex™ 200, GE HealthCare) equilibrated in buffer A.
After enzymatic cleavage of the histidine tag, the protein is reinjected onto a new IMAC nickel chelate chromatography column (His-Trap 6 Fast Flow™, GE HealthCare) equilibrated in buffer A. The fractions eluted with a gradient of buffer B and containing the protein of interest after electrophoresis (SDS PAGE) are finally combined and conserved at −80° C.
For the production of autophosphorylated protein, the previous fractions are incubated for 1 h at ambient temperature after the addition of 2 mM ATP, 2 mM MgCl2, and 4 mM Na3VO4. After the reaction has been stopped with 5 mM of EDTA, the reaction mixture is injected onto a HiPrep desalifying column (GE HealthCare) preequilibrated in buffer A+4 mM Na3VO4, and the fractions containing the protein of interest (SDS PAGE analysis) are combined and stored at −80° C. The degree of phosphorylation is verified by mass spectrometry (LC-MS) and by peptide mapping.
• A) Test A: HTRF MET assay in 96-well format
MET at a final concentration of 5 nM is incubated in a final volume of 50 μl of enzymatic reaction in the presence of the test molecule (for a final concentration range of from 0.17 nM to 10 μM, 3% DMSO final concentration) in 10 mM MOPS buffer, pH 7.4, 1 mM DTT, 0.01% Tween 20. The reaction is initiated with the substrate solution to obtain final concentrations of 1 μg/ml poly-(GAT), 10 μM ATP and 5 mM MgCl2. After incubation for 10 min at ambient temperature, the reaction is stopped with a 30 μl mix so as to obtain a final solution of 50 mM Hepes pH 7.5, 500 mM potassium fluoride, 0.1% BSA and 133 mM EDTA in the presence of 80 ng of streptavidin 61SAXLB Cis-Bio Int. and 18 ng of anti-phosphotyrosine Mab PT66-Europium Cryptate per well. After incubation for 2 hours at ambient temperature, the reading is taken at 2 wavelengths, 620 nm and 665 nm, on a reader for the TRACE/HTRF technique and the % inhibition is calculated from the 665/620 ratios.
Target sequence in this assay (P08581 956-1390): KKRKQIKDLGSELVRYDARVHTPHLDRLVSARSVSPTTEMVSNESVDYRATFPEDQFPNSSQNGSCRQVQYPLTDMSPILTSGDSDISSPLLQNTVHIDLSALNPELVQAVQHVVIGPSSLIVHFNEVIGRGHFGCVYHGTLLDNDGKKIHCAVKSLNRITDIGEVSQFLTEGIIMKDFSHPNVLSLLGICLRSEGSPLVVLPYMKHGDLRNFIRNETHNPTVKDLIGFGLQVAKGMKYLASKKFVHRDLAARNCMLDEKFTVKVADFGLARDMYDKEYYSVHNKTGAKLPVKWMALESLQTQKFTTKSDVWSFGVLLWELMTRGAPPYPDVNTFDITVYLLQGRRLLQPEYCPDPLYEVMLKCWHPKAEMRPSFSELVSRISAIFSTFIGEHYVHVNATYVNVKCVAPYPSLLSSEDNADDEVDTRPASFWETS

O=C(CCCN1CCOCC1)Nc1nc2ccc(Sc3nnc4ccc(-c5ccc(F)cc5)nn34)cc2s1 [Example 15, N-(6-{[6-(4-Fluorophenyl)[1,2,4]triazolo[4,3-b]pyridazin-3-yl]sulphanyl}-1,3-benzothiazol-2-yl)-4-morpholin-4-ylbutanamide]
IC50 [1]: < 1000 nM | IC50 (MET [2]): < 100 nM | IC50 (MET [3]): < 100 nM

CC(C)(C)OC(=O)Nc1nc2ccc(Sc3nnc4ccc(N5CCOCC5)nn34)cc2s1 [Example 16, 1,1-Dimethylethyl (6-{[6-(morpholin-4-yl)[1,2,4]triazolo[4,3-b]pyridazin-3-yl]sulphanyl}-1,3-benzothiazol-2-yl)carbamate]
IC50 [1]: < 1000 nM | IC50 (MET [2]): < 100 nM | IC50 (MET [3]): < 100 nM

CCN(CC)CCNC(=O)Nc1nc2ccc(Sc3nnc4ccc(-c5ccc(F)cc5)nn34)cc2s1 [Example 17, 1-[2-(Diethylamino)ethyl]-3-(6-{[6-(4-fluorophenyl)[1,2,4]triazolo[4,3-b]pyridazin-3-yl]sulphanyl}-1,3-benzothiazol-2-yl)urea]
IC50 [1]: < 1000 nM | IC50 (MET [2]): < 100 nM | IC50 (MET [3]): < 100 nM

CC(=O)Nc1nc2ccc(Sc3nnc4ccc(N5CCOCC5)nn34)cc2s1 [Example 18, N-(6-{[6-(Morpholin-4-yl)[1,2,4]triazolo[4,3-b]pyridazin-3-yl]sulphanyl}-1,3-benzothiazol-2-yl)acetamide]
IC50 [1]: < 1000 nM | IC50 (MET [2]): 100 to 500 nM | IC50 (MET [3]): < 100 nM

CN1CCN(c2ccc3nnc(Sc4ccc5nc(NC(=O)OC(C)(C)C)sc5c4)n3n2)CC1 [Example 19, 1,1-Dimethylethyl (6-{[6-(4-methylpiperazin-1-yl)[1,2,4]triazolo[4,3-b]pyridazin-3-yl]sulphanyl}-1,3-benzothiazol-2-yl)carbamate hydrochloride]
IC50 [1]: < 1000 nM | IC50 (MET [2]): < 100 nM | IC50 (MET [3]): < 100 nM

O=C(NCCN1CCOCC1)Nc1nc2ccc(Sc3nnc4ccc(-n5ccnc5)nn34)cc2s1 [Example 20, 1-(6-{[6-(1H-Imidazol-1-yl)[1,2,4]triazolo[4,3-b]pyridazin-3-yl]sulphanyl}-1,3-benzothiazol-2-yl)-3-[2-(morpholin-4-yl)ethyl]urea]
IC50 [1]: < 1000 nM | IC50 (MET [2]): < 100 nM | IC50 (MET [3]): < 100 nM

COc1ccc2nnc(Sc3ccc4nc(NC(=O)OC(C)(C)C)sc4c3)n2n1 [Example 21, 1,1-Dimethylethyl {6-[(6-methoxy[1,2,4]triazolo[4,3-b]pyridazin-3-yl)sulphanyl]-1,3-benzothiazol-2-yl}carbamate]
IC50 [1]: < 1000 nM | IC50 (MET [2]): 100 to 500 nM | IC50 (MET [3]): < 100 nM

CC(C)(C)OC(=O)Nc1nc2ccc(Sc3nnc4ccc(-n5ccnc5)nn34)cc2s1 [Example 22, 1,1-Dimethylethyl (6-{[6-(1H-imidazol-1-yl)[1,2,4]triazolo[4,3-b]pyridazin-3-yl]sulphanyl}-1,3-benzothiazol-2-yl)carbamate]
IC50 [1]: < 1000 nM | IC50 (MET [2]): 100 to 500 nM | IC50 (MET [3]): < 100 nM

COc1ccc2nnc(Sc3ccc4nc(NC(=O)NCCN5CCOCC5)sc4c3)n2n1 [Example 23, 1-{6-[(6-Methoxy[1,2,4]triazolo[4,3-b]pyridazin-3-yl)sulphanyl]-1,3-benzothiazol-2-yl}-3-[2-(morpholin-4-yl)ethyl]urea]
IC50 [1]: < 1000 nM | IC50 (MET [2]): < 100 nM | IC50 (MET [3]): < 100 nM

COCCNc1ccc2nnc(Sc3ccc4nc(NC(=O)OC(C)(C)C)sc4c3)n2n1 [Example 24, 1,1-Dimethylethyl[6-({6-[(2-methoxyethyl)amino][1,2,4]triazolo[4,3-b]pyridazin-3-yl}sulphanyl)-1,3-benzothiazol-2-yl]carbamate]
IC50 [1]: < 1000 nM | IC50 (MET [2]): < 100 nM | IC50 (MET [3]): < 100 nM

CC(=O)Nc1nc2ccc(Sc3nnc4ccc(N5CCN(C)CC5)nn34)cc2s1 [Example 25, N-(6-{[6-(4-Methylpiperazin-1-yl)[1,2,4]triazolo[4,3-b]pyridazin-3-yl]sulphanyl}-1,3-benzothiazol-2-yl)acetamide]
IC50 [1]: < 1000 nM | IC50 (MET [2]): 100 to 500 nM | IC50 (MET [3]): < 100 nM

COCCNc1nc2ccc(Sc3nnc4ccc(-c5ccc(F)cc5)nn34)cc2s1 [Example 26, 6-{[6-(4-Fluorophenyl)[1,2,4]triazolo[4,3-b]pyridazin-3-yl]sulphanyl}-N-(2-methoxyethyl)-1,3-benzothiazol-2-amine]
IC50 [1]: < 1000 nM | IC50 (MET [2]): < 100 nM | IC50 (MET [3]): < 100 nM

COCCNc1ccc2nnc(Sc3ccc4nc(NC(C)=O)sc4c3)n2n1 [Example 27, N-[6-({6-[(2-Methoxyethyl)amino][1,2,4]triazolo[4,3-b]pyridazin-3-yl}sulphanyl)-1,3-benzothiazol-2-yl]acetamide]
IC50 [1]: < 1000 nM | IC50 (MET [2]): < 100 nM | IC50 (MET [3]): < 100 nM

O=C(NCCN1CCOCC1)Nc1nc2ccc(Sc3nnc4ccc(N5CCOCC5)nn34)cc2s1 [Example 28, 1-[2-(Morpholin-4-yl)ethyl]-3-(6-{[6-(morpholin-4-yl)[1,2,4]triazolo[4,3-b]-pyridazin-3-yl]sulphanyl}-1,3-benzothiazol-2-yl)urea]
IC50 [1]: < 1000 nM | IC50 (MET [2]): < 100 nM | IC50 (MET [3]): < 100 nM

Reference: US9115134B2, “6-triazolopyridazine sulfanyl benzothiazole derivatives as MET inhibitors” (SANOFI, priority 2007, dated 2015)
